Blank lines part the entries; values can stand above or below the compound they belong to.
Assays:
[1] = tested on: Helix pomatia Type H-1; assay: Cleavage by Helix pomatia Type H-1; assay type: biochemical; details: phosphate buffer pH 5, 6 and 7.4; room temperature
Protocol: (§1) The above compound was dissolved in a minimum of DMSO and added to Helix pomatia Type H-1 in phosphate buffer solutions at pH 5, 6 and 7.4, respectively at room temperature. Aliquots were taken out at different time points and LC-MS and HPLC used for analysis. LCMS analysis required a small organic extraction of each aliquot in order to remove the protein prior to analysis. Analytical HPLC allowed direct injection and offers high sensitivity and reliability. Caffeine was included as an internal standard. The compound was almost fully hydrolysed at 5 min.

[2] = tested on: acid phosphatase; assay: Cleavage by acid phosphatase; assay type: biochemical; details: phosphate buffer pH 5, 6 and 7.4; room temperature
Protocol: as §1, with “acid phosphatase” for “Helix pomatia Type H-1”, “1 hour.” for “5 min.”

[3] = tested on: amano lipase; assay: Cleavage by Amano lipase; assay type: biochemical, Pseudomonas fluorescens; details: phosphate buffer pH 5, 6 and 7.4; room temperature
Protocol: as §1, with “amano lipase” for “Helix pomatia Type H-1”

[4] = tested on: Amano Lipase from Pseudomonas fluorescens; assay: Lipase test of linker X8: cleavage and model drug release; assay type: biochemical; details: for time to full conversion to X10 and X11: 1 mg/mL lipase, room temperature
Protocol: Compound X8 was exposed to lipase in phosphate buffered solutions at pH 6 and 7.4. […] The pH 6 and 7.4 tests were conducted to determine if any difference in the rate of intramolecular lactonisation would be observed. Initial tests involved incubation of the linker (1 mM in 2% DMSO/buffer) with 1 mg/mL lipase (>20 U/mL) at room temperature (FIG. 16). Caffeine was included as an internal standard. Aliquots were taken out at different time points and LC-MS and HPLC used for analysis.

SMILES: O=C(NCCNC(=O)c1ccccc1)OCc1ccc(OS(=O)(=O)O)cc1
- time at which the compound was almost fully hydrolysed [1]: 5 min

- time at which the compound was almost fully hydrolysed [2]: 1 h
SMILES: O=C(NCCOP(=O)(O)O)c1ccccc1

- time at which the compound was almost fully hydrolysed [3]: 5 min
SMILES: CCCCCCCC(=O)OCCNC(=O)c1ccccc1

- non-linear conversion to products, duration ([4]; FIG. 17, conditions not given): 114 min
- time to full conversion to X10 and X11 ([4]; pH 6): 60 min
- time to full conversion to X10 and X11 ([4]; pH 7.4, linker 1 mM in 2% DMSO/buffer): < 15 min
SMILES: CCCCCCCC(=O)OCCN(CC(=O)OCC(=O)c1ccc(Br)cc1)C(=O)c1ccccc1 [Example X8, 2-(N-(2-(2-(4-bromophenyl)-2-oxoethoxy)-2-oxoethyl)benzamido)ethyl octanoate]

Source: patent publication US20220387615A1, “COMPOSITIONS COMPRISING ENZYME CLEAVABLE LINKER PLATFORMS AND CONJUGATES THEREOF” (Danmarks Tekniske Universitet, priority 2019, published 2022)
